Laboratory results as given in PMC8708032, “Fragment-Based Ligand Discovery Applied to the Mycolic Acid Methyltransferase Hma (MmaA4) from Mycobacterium tuberculosis: A Crystallographic and Molecular Modelling Study” (Pharmaceuticals, 2021).

Molecular target: Hma (MmaA4) (Mycobacterium tuberculosis, UniProt Q79FX8)
Sequence (Q79FX8 4-301): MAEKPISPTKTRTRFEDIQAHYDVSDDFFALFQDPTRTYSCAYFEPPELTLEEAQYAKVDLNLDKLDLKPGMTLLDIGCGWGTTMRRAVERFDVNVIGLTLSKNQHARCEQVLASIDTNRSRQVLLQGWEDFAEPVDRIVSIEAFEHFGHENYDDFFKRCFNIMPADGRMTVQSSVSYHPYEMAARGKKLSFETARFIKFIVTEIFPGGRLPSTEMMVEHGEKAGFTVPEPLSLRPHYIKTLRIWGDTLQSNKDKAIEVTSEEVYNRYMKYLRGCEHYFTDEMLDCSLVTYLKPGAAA

## O=Cc1ccc2cccc(O)c2n1 [ZT726]
  X-ray crystallography, fragment soak, PanDDA: A second molecule of the ZT260 and ZT320 fragments is located at this position, as well as ZT726
